Reference: patent publication US20250009726A1, “A PHARMACEUTICAL COMPOSITION OF FXR AGONIST AND ITS PREPARATION METHOD” (GANNEX PHARMA CO., LTD., priority 2021, published 2025)
“Also recorded” adds a separate entry of the source.

Assays:
Format in all cases: physicochemical
[1] = pKa of the compound of formula (I)
Source text: (§1) The solubility of drugs in the acidic environment of the gastrointestinal tract is a prerequisite for their transmembrane transport and absorption into the human body to exert efficacy. Therefore, the very low solubility of the compound limits its use for development as a drug candidate.

[2] = Related substances of pilot tablet batches and API (area normalization); settings: batch after manufacture
Source text: The amount of impurities in each batch of samples were relatively stable and no significant change in the amount and type of impurities was observed after the tableting process.

[3] = Compatibility test of API and excipients (strong light, high temperature, high humidity, 17 days)
[4] = Log D of the compound of formula (I)
Source text: as §1

[5] = Equilibrium solubility in media with different pH values (shaking 72 h, 37° C.); settings: for solubility thermodynamic at 72 h: thermodynamic from solid
[6] = Solubility in solvents (descriptive)
Source text: as §1

[7] = normal temperatur, 92.5% RH-17 Days

pKa [1]: 3.76
COMPOUND I-C ([2]; criterion NMT 0.15%): Not detected
COMPOUND I-IM1 ([2]; criterion NMT 0.15%): 0.12%
COMPOUND I-IM2 ([2]; criterion NMT 0.15%): 0.12%
Any individual unspecified impurity ([2]; criterion NMT 0.2%): 0.048%
COMPOUND I-B ([2]; criterion NMT 0.20%): 0.015%
Total impurities ([2]; criterion NMT 2.0%): 0.47%
Related substances (%) COMPOUND I-B ([3]; 0 Day): 0.2869%
Related substances (%) COMPOUND I-IM1 ([3]; 0 Day): 0.2264%
Related substances (%) Other maximum impurities ([3]; 0 Day): 0.1001%
Related substances (%) Total impurities ([3]; 0 Day): 1.4056%
Related substances (%) COMPOUND I-B ([3]; 25° C., 4500Lx-17 Days): 0.2896%
Related substances (%) COMPOUND I-IM1 ([3]; 25° C., 4500Lx-17 Days): 0.2338%
Related substances (%) Other maximum impurities ([3]; 25° C., 4500Lx-17 Days): 0.1135%
Related substances (%) Total impurities ([3]; 25° C., 4500Lx-17 Days): 1.4901%
Related substances (%) COMPOUND I-B ([3]; 60° C.-17 Days): 0.2964%
Related substances (%) COMPOUND I-IM1 ([3]; 60° C.-17 Days): 0.2278%
Related substances (%) Other maximum impurities ([3]; 60° C.-17 Days): 0.1158%
Related substances (%) Total impurities ([3]; 60° C.-17 Days): 1.4686%
Related substances (%) COMPOUND I-B [3, 7]: 0.2836%
Related substances (%) COMPOUND I-IM1 [3, 7]: 0.2318%
Related substances (%) Other maximum impurities [3, 7]: 0.1124%
Related substances (%) Total impurities [3, 7]: 1.4400%
total impurity fluctuations of related substances ([3]; strong light, high temperature and high humidity, compared with 0 day): less than 0.5%
logD [4]: 5.76
solubility thermodynamic at 72 h ([5]; aqueous buffer, pH 6.0, 37° C.): 1.5 µg/mL
solubility thermodynamic at 72 h ([5]; aqueous buffer, pH 6.8, 37° C.): 217 µg/mL
solubility thermodynamic at 72 h ([5]; aqueous buffer, pH 7.0, 37° C.): 365 µg/mL
solubility thermodynamic at 72 h ([5]; aqueous buffer, pH 8.0, 37° C.): 20400 µg/mL
solubility (in words) ([5]; low pH (pH 1.0-5.0)): almost insoluble
solubility (in words) ([5]; low pH (pH 1.0-5.0), listed as compound of formula (I)): practically insoluble
solubility (in words) ([5]; pH 6.8): very slightly soluble
solubility thermodynamic at 72 h ([5]; water, pH 9.3, water, H2O (The final pH was around 9.3), 37° C.): 22300 µg/mL
solubility ([6]; 0.01 mol/L sodium hydroxide solutions): practically insoluble
solubility ([6]; N, N-dimethylformamide): soluble
solubility ([6]; acetonitrile): practically insoluble
solubility ([6]; dimethyl sulfoxide): soluble
solubility ([6]; ethyl acetate): practically insoluble
solubility ([6]; methanol): soluble
solubility ([6]; tetrahydrofuran): practically insoluble
solubility ([6]; water): practically insoluble
SMILES: O=C([O-])c1ccc(Oc2ccc3cc(OCc4c(-c5c(Cl)cccc5Cl)noc4C4CC4)ccc3c2)nc1.[Na+] [COMPOUND I, 6-(6-(((5-cyclopropyl-3-(2,6-dichlorophenyl)isoxazol-4-yl)methoxy)naphthalene-2-yl)oxy) sodium nicotinate]
solubility (in words) ([5]; pure water): sparingly soluble; also recorded: slightly soluble
